Reference: PMC3089676 (Journal of the American Chemical Society, 2010)

Tests used:
Format in all cases: biochemical
HcyF (WS1006) = target: T1, HcyF (WS1006) (Wolinella succinogenes, UniProt Q7M9D2); experiment: HPLC detection of AMP formation; conditions: HcyS-Ala and HcyD present; MgCl2; room temperature
T1 sequence (Q7M9D2 1-272): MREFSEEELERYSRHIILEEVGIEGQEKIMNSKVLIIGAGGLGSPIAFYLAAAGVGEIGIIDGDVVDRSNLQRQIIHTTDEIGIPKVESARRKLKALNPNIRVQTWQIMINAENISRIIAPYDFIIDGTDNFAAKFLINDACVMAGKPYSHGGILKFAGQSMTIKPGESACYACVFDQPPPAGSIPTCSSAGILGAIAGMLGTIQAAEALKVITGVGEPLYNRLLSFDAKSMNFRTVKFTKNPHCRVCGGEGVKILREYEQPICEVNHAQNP

MetY (WS1012) = target: T2, MetY (WS1012) (Wolinella succinogenes, UniProt Q7M9C8); experiment: MALDI-MS of HcyS-homocysteine formation; conditions: HcyS-COSH as sulfur donor; room temperature
T2 sequence (Q7M9C8 1-407): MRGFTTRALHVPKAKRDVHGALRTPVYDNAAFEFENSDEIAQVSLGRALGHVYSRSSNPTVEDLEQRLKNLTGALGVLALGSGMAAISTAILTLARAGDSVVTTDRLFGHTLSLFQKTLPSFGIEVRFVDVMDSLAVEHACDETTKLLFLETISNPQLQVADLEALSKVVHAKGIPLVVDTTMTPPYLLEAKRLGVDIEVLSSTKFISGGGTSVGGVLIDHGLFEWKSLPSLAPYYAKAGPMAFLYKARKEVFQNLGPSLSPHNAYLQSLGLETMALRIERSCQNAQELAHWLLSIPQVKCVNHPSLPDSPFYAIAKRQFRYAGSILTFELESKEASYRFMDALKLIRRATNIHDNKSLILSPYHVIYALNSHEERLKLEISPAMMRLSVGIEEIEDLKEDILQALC

HcyD (WS1005) = target: T3, HcyD (WS1005) (Wolinella succinogenes, UniProt Q7MRV8); experiment: 1H-NMR of released alanine; conditions: released from HcyS-Ala (protein substrate); pH 8.0; room temperature
T3 sequence (Q7MRV8 1-130): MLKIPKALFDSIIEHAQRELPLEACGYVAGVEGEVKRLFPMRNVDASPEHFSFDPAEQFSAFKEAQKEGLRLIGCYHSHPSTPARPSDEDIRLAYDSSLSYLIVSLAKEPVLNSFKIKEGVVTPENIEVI

Nc1ncnc2c1ncn2[C@@H]1O[C@H](COP(=O)(O)OP(=O)(O)OP(=O)(O)O)[C@@H](O)[C@H]1O [ATP]
HPLC detection of AMP formation (HcyF (WS1006)): AMP formation was dependent on HcyF, HcyS-Ala and HcyD

CC(=O)OCC[C@H](N)C(=O)O [O-acetyl-L-homoserine]
MALDI-MS of HcyS-homocysteine formation (MetY (WS1012)): catalyzed the reaction of HcyS-COSH with O-acetyl-L-homoserine to form HcyS-Homocysteine

C[C@H](N)C(=O)O [alanine]
1H-NMR of released alanine (HcyD (WS1005)): 1H-NMR analysis of the small-molecule product confirmed the release of alanine from HcyS-Ala
